Molecules are shown by their SMILES. Counter-ions that a name gives are not always drawn.

Test system in the first data set: not given
Assay: not given
Details: not given
With `CN(CCCc1c(F)cc(F)cc1F)[C@H]1CC[C@H](c2ccc3[nH]c(=O)oc3c2)CC1` (as salt: HCl) [Example 57, 6-(trans-4-{[3-(2,4,6-Trifluorophenyl)propyl]methylamino}cyclohexyl)-3H-benzoxazol-2-one], the melting point lay in the range of 235 to 238 °C.

Compound `CN(CCCc1ccc(F)c(F)c1F)[C@H]1CC[C@H](c2ccc3[nH]c(=O)oc3c2)CC1` (as salt: HCl) [Example 55, 6-(trans-4-{[3-(2,3,4-Trifluorophenyl)propyl]methylamino}cyclohexyl)-3H-benzoxazol-2-one] returned a melting point of 269 to 274 °C.

`NCCN(CCCc1ccc(F)cc1)[C@H]1CC[C@H](c2ccc3[nH]c(=O)oc3c2)CC1` (as salt: HCl) [Example 35, 6-(trans-4-{(2-Aminoethyl)-[3-(4-fluorophenyl)propyl]amino}cyclohexyl)-3H-benzoxazol-2-one] had a melting point of 161 to 169 °C.

In the case of `CN(CCCc1cccc(F)c1)[C@H]1CC[C@H](c2ccc3[nH]c(=O)oc3c2)CC1` (as salt: HCl) [Example 47b, 6-(trans-4-{[3-(3-Fluorophenyl)propyl]methylamino}cyclohexyl)-3H-benzoxazol-2-one], the melting point was in the range of 210 to 238 °C.

The compound `CC(C)CN(CCCc1ccc(F)cc1)[C@H]1CC[C@H](c2ccc3[nH]c(=O)oc3c2)CC1` (as salt: HCl) [Example 33, 6-(trans-4-{[3-(4-Fluorophenyl)propyl]isobutylamino}cyclohexyl)-3H-benzoxazol-2-one] gave a melting point of 199 to 201 °C.

For the compound `CN(CCCc1nccs1)[C@H]1CC[C@H](c2ccc3[nH]c(=O)oc3c2)CC1` (as salt: HCl) [Example 59, 6-{trans-4-[Methyl(3-thiazol-2-ylpropyl)amino]cyclohexyl}-3H-benzoxazol-2-one], the melting point fell in the range of 237 to 239 °C.

Regarding `CN(CCSc1ccc(F)cc1)[C@H]1CC[C@H](c2ccc3[nH]c(=O)oc3c2)CC1` (as salt: HCl) [Example 20, 6-{trans-4-[2-(4-Fluorophenylsulfanylethyl)methylamino]cyclohexyl}-3H-benzoxazol-2-one], the melting point was in the range of 213 to 217 °C.

`O=c1[nH]c2ccc([C@H]3CC[C@H](NCC[S+]([O-])c4ccccc4)CC3)cc2o1` (stereo partly drawn) (as salt: HCl) [Example 15, 6-[trans-4-(2-Benzenesulfinylethylamino)cyclohexyl]-3H-benzoxazol-2-one] returned a melting point of 107 to 110 °C.

For the compound `CN(CCCc1ccc(Cl)cc1Cl)[C@H]1CC[C@H](c2ccc3[nH]c(=O)oc3c2)CC1` (as salt: HCl) [Example 54, 6-(trans-4-{[3-(2,4-Dichlorophenyl)propyl]methylamino}cyclohexyl)-3H-benzoxazol-2-one], the melting point lay in the range of 273 to 279 °C.

For the compound `CN(CCOc1ccccc1)[C@H]1CC[C@H](c2ccc3[nH]c(=O)oc3c2)CC1` (as salt: HCl) [Example 22, 6-{trans-4-[Methyl(2-phenoxyethyl)amino]cyclohexyl}-3H-benzoxazol-2-one], the melting point was in the range of 277 to 285 °C.

For `O=c1[nH]c2ccc([C@H]3CC[C@H](NCCCc4ccc(C(F)(F)F)cc4)CC3)cc2o1` (as salt: HCl) [Example 14, 6-{trans-4-[3-(4-Trifluoromethylphenyl)propylamino]cyclohexyl}-3H-benzoxazol-2-one], the melting point fell in the range of 285 to 295 °C.

`Cc1ccc(CCCN[C@H]2CC[C@@H](c3ccc4[nH]c(=O)oc4c3)CC2)cc1` (as salt: HCl) [Example 13a, 6-[cis-4-(3-p-Tolylpropylamino)cyclohexyl]-3H-benzoxazol-2-one]: the melting point lay within 263 to 265 °C.

Compound `CN(CCCc1ccc(F)c(F)c1)[C@H]1CC[C@H](c2ccc3[nH]c(=O)oc3c2)CC1` (as salt: HCl) [Example 40b, 6-(trans-4-{[3-(3,4-Difluorophenyl)propyl]methylamino}cyclohexyl)-3H-benzoxazol-2-one] gave a melting point of 224 to 227 °C.

On to `C=CCN(CCCc1ccc(F)cc1)[C@H]1CC[C@H](c2ccc3[nH]c(=O)oc3c2)CC1` (as salt: HCl) [Example 32, 6-(trans-4-{Allyl-[3-(4-fluorophenyl)propyl]amino}cyclohexyl)-3H-benzoxazol-2-one], for which the melting point lay in the range of 224 to 230 °C.

A further data set deals with T1, [3H]ifenprodil binding site, rat forebrain membranes (Rattus norvegicus, UniProt P35439+Q00960).
T1 construct: membrane fraction was prepared from frozen adult rat forebrains; tissue Zivic-Miller Laboratories, Inc; host or cells: adult rat forebrain, washed buffy coat membrane fraction
T1 sequence (Q00960 27-1482, other chains not shown): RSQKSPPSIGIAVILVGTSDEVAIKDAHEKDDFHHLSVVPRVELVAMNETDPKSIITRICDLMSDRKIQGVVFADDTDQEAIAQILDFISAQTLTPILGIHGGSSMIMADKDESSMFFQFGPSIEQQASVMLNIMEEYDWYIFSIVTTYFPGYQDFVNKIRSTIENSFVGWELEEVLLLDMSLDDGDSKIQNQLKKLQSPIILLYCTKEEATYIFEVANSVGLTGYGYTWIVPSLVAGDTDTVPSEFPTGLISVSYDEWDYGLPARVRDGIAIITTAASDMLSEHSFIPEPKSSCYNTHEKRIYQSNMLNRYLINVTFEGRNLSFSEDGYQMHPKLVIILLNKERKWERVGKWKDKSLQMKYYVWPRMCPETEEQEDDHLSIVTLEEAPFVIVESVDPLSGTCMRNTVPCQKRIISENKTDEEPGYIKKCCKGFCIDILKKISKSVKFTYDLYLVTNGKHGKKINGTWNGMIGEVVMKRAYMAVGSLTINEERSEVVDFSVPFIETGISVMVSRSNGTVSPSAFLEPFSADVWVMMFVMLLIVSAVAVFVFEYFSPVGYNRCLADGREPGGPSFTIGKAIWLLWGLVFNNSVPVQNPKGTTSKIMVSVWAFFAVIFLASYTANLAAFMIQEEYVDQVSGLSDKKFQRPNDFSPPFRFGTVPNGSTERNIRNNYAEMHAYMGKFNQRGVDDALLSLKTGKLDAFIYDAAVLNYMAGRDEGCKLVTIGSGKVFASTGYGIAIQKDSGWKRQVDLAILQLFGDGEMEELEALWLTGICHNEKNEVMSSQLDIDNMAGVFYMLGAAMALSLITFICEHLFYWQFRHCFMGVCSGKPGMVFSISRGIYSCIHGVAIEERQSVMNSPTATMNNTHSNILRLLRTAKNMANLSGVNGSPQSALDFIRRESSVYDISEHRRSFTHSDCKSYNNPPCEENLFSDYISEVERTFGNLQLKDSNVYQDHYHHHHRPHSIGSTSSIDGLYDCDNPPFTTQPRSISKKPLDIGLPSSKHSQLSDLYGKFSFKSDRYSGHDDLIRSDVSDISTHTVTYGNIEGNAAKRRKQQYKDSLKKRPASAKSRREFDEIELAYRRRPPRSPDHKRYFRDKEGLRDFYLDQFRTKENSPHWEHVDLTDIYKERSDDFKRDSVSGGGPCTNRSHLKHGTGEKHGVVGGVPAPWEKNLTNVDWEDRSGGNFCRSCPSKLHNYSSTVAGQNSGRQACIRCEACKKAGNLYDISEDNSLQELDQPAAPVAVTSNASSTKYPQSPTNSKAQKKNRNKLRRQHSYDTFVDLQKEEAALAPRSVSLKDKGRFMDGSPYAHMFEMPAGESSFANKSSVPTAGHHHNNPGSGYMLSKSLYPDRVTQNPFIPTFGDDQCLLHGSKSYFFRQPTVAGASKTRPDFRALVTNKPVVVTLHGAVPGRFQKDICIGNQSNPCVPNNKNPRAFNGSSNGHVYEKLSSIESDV
The data set can be described thus: [3H]Ifenprodil binding assay. As to conditions: 4 nM [3H]-ifenprodil, 2 hours at room temperature. On the procedure: All buffers and reagents used in assay incubations or to dissolve drugs were prepared using water purified through a Milli-Q reverse osmosis system (Millipore Corp, Bedford, Mass.) and treated with UV emissions. Prior to use in the assays, buffers were further filtered through a sterile Corning filtration unit (Corning Glass Works, Corning, N.Y.) containing a 0.2-micron filter. Buffer used to rinse the membranes on the assay filters was prepared with purified water, but was not refiltered and was stored no longer than 5 days. Stock solutions of the drugs (usually 10 mM) were dissolved in 20 mM HEPES-KOH buffer pH 7.4 (assay buffer) with the addition of 1 to 5 μL of glacial AcOH, if needed to keep them in solution. For eliprodil the stock solution was buffered with the addition of 10% DMSO. All subsequent dilutions from stock were made in buffer.
An extensively washed buffy coat membrane fraction was prepared from frozen adult rat forebrains (Zivic-Miller Laboratories, Inc., Zelienople, Pa.) as described previously (Coughenour L. L., Cordon, J. J., J. Pharmacol. Exp. Ther., 1997;280:584-592) and stored at −80° C. On the day of the assay, pellets were resuspended in 35 mL of assay buffer at pH 7.4 using a Polytron setting 6. After incubation at 37° C. for 30 minutes in a shaking water bath, the homogenate was centrifuged 40,000×g for 10 minutes at 4° C. The pellets were resuspended in fresh buffer and centrifuged 3 more times before final suspension for use in the assay.
[^3H]Ifenprodil Binding. Triplicate incubations were carried out in a volume of 0.5 mL in 1.3 mL polypropylene tubes (Marsh Biomedical Products Inc., Rochester, N.Y.) for 2 hours at room temperature. Incubations contained test agents, membranes (100-200 μg protein) and 4 nM[^3H]-ifenprodil in 20 mM HEPES-KOH buffer, pH 7.4 (assay buffer). Assays were started by addition of the membranes. Bound radioligand was separated by filtration under reduced pressure using a Tomtec Mach II, 96-well cell harvester (Tomtec Inc., Orange, Colo.). Filtration was through Whatman GF/B glass fiber filters (Whatman Ltd, Maidstone, England), which had been soaked for at least 15 minutes in 0.3% polyethylenimine and allowed to air dry. The filters were rinsed with 3 mL of ice cold assay buffer within 6 seconds. Air was allowed to pass through the filters for an additional 10 seconds to remove residual moisture. The filter mat was supported on a cold (−20° C.) teflon support, and filters from individual wells were separated and placed in Mini Poly-Q vials (Beckman Instruments Inc., Fullerton, Calif.) and filled with 4 mL of scintillation cocktail (Beckman Ready Protein^+). Radioactivity retained on the filter was determined by liquid scintillation spectrophotometry. Nonspecific binding was defined as the binding in the presence of 1 mM ifenprodil. Specific binding was 90%.
Data analysis. Binding curves were statistically analyzed for a best one or two site competition fit using GraphPad Prism software (GraphPad Software Inc., San Diego, Calif.). The normalized data was fit by nonweighted nonlinear regression to either [formula]
Control data was entered as 100%, and no parameters were constrained. Inhibition curves were compared by ANOVA with post test comparisons of the logIC50 using Dunnett's multiple comparisons post test or Student's nonpaired, two-tailed t-test (GraphPad InStat software).
On to `O=c1[nH]c2ccc([C@H]3CC[C@H](NCCCc4ccc(C(F)(F)F)cc4)CC3)cc2o1` [Example 14, 6-{trans-4-[3-(4-Trifluoromethylphenyl)propylamino]cyclohexyl}-3H-benzoxazol-2-one], for which the half-maximal inhibitory concentration (IC50) is 128 nM.

Take `CN(CCCc1nccs1)[C@H]1CC[C@H](c2ccc3[nH]c(=O)oc3c2)CC1` [Example 59, 6-{trans-4-[Methyl(3-thiazol-2-ylpropyl)amino]cyclohexyl}-3H-benzoxazol-2-one]: the IC50 turned out to be 316 nM.

`CN(CCCc1ccc(F)c(F)c1)[C@H]1CC[C@H](c2ccc3[nH]c(=O)oc3c2)CC1` [Example 40b, 6-(trans-4-{[3-(3,4-Difluorophenyl)propyl]methylamino}cyclohexyl)-3H-benzoxazol-2-one]: the IC50 stood at 29 nM.

As for `O=c1[nH]c2ccc([C@H]3CC[C@@H](NCCSc4ccccc4)CC3)cc2o1` [Example 5b, 6-[cis-4-(2-Phenylsulfanylethylamino)cyclohexyl]-3H-benzoxazol-2-one], the IC50 stood at 21 nM.

Consider `O=C(NCCNC1CCC(c2ccc3[nH]c(=O)oc3c2)CC1)c1ccccc1` (mixture of isomers) [Example 42b, N-{2-[4-(2-Oxo-2,3-dihydrobenzoxazol-6-yl)cyclohexylamino]ethyl}-benzamide], for which the IC50 worked out at 980 nM.

`CN(CCCc1cc(F)cc(F)c1)[C@H]1CC[C@H](c2ccc3[nH]c(=O)oc3c2)CC1` [Example 39b, 6-(trans-{[3-(3,5-Difluorophenyl)propyl]methylamino}cyclohexyl)-3H-benzoxazol-2-one] showed an IC50 of 37 nM.

Consider `CN(CCCc1cccc(F)c1)[C@H]1CC[C@H](c2ccc3[nH]c(=O)oc3c2)CC1` [Example 47b, 6-(trans-4-{[3-(3-Fluorophenyl)propyl]methylamino}cyclohexyl)-3H-benzoxazol-2-one], for which the half-maximal inhibitory concentration (IC50) was determined as 15 nM.

`CN(CCCc1ccc(F)cc1)[C@H]1CC[C@H](c2ccc3[nH]c(=O)sc3c2)CC1` [Example 61b, 6-(trans-4-{[3-(4-Fluorophenyl)propyl]methylamino}cyclohexyl)-3H-benzthiazol-2-one] had an IC50 of 12 nM.

Compound `Cc1cc(F)ccc1CCCN(C)C1CCC(c2ccc3[nH]c(=O)oc3c2)CC1` (stereo in doubt) [Example 43b, 6-(trans-{4-[Methyl(4-fluoro-2-methylphenylpropyl)amino]cyclohexyl})-3H-benzoxazol-2-one] gave an IC50 of 56 nM.

In the case of `O=c1[nH]c2ccc([C@H]3CC[C@H](N(CCCc4ccc(F)cc4)CC4CC4)CC3)cc2o1` [Example 30, 6-(trans-4-{Cyclopropylmethyl-[3-(4-fluorophenyl)propyl]amino}cyclohexyl)-3H-benzoxazol-2-one], the IC50 turned out to be 219 nM.

For the compound `CN(CCCc1c(F)cc(F)cc1F)[C@H]1CC[C@H](c2ccc3[nH]c(=O)oc3c2)CC1` [Example 57, 6-(trans-4-{[3-(2,4,6-Trifluorophenyl)propyl]methylamino}cyclohexyl)-3H-benzoxazol-2-one], the IC50 was 6 nM.

For `CN(CCCc1ccc(Cl)cc1F)[C@H]1CC[C@H](c2ccc3[nH]c(=O)oc3c2)CC1` [Example 45b, 6-(trans-4-{[3-(4-Chloro-2-fluorophenyl)propyl]methylamino}cyclohexyl)-3H-benzoxazol-2-one], the IC50 was found to be 7 nM.

`CCN([C@H]1CC[C@H](c2ccc3[nH]c(=O)oc3c2)CC1)[C@H](C)CCc1ccccc1` [Example 27, 6-(trans-4-{Ethyl-[(R)-1-methyl-3-phenylpropyl]amino}cyclohexyl)-3H-benzoxazol-2-one]: the IC50 worked out at 132 nM.
